The source of these data is ChEMBL document CHEMBL1201862, “PubChem BioAssay data set” (2004).

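Tested at 5 concentrations; 48 h exposure; 96-well plates; endpoints linearly interpolated, else capped at highest concentration. GI50 marks 50% less growth.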 The source made the active and inactive calls. Rule as the data show it: active = GI50 up to about 1.1 µM and inactive = higher.

Test systems include SK-OV-3; ACHN; IGROV-1; CCRF-CEM; OVCAR-5; TK-10; PC-3; NCI-H522; NCI-H460; Hs-578T; SW-620; HOP-62; HCT-116; Malme-3M; SK-MEL-5; A549; SNB-75; CAKI-1; SNB-19; RPMI-8226.
What all share (test): NCI tumour cell line growth inhibition, 48 h

As to `C=C(CCC(C)C1CCC2C3=C(C(=O)CC21C)C1(C)CCC(=O)[C@@H](C)C1CC3=O)C(C)C(=O)O` (stereo not given in full), the GI50 in the experiment on SK-OV-3 was 0.51 µM (active); in the experiment with ACHN, 29.9 µM (inactive); with IGROV-1, 42.6 µM (inactive); in the experiment with CCRF-CEM, 22.2 µM (inactive); in the experiment on OVCAR-5 it was > 100 µM (inactive); in the experiment on TK-10, > 100 µM (inactive). The GI50 with PC-3 was 33.6 µM (inactive); in the experiment with NCI-H522, 45.8 µM (inactive); in the experiment on NCI-H460, 34 µM (inactive); with Hs-578T it was > 100 µM (inactive); in the experiment with SW-620 it was 68.2 µM (inactive); in the experiment with HOP-62 it was 35.3 µM (inactive). Also, the GI50 in the experiment with HCT-116 is 50.9 µM (inactive); in the experiment on Malme-3M it was > 100 µM (inactive); with SK-MEL-5, 31 µM (inactive); with A549 it was > 100 µM (inactive); in the experiment on SNB-75, 42.4 µM (inactive); in the experiment with CAKI-1 it was 30.7 µM (inactive). Also, in the experiment with SNB-19, the GI50 was > 100 µM (inactive).
Turning to `Cc1nc(N(C(C)C)C(C)C)c(C(C)C)o1`, the GI50 in the experiment with SK-OV-3, in the experiment with ACHN, in the experiment with IGROV-1, in the experiment on CCRF-CEM, with OVCAR-5 and in the experiment on TK-10 was > 100 µM (inactive) throughout. Moreover, the GI50 with PC-3, with NCI-H522, in the experiment with NCI-H460, in the experiment on Hs-578T, in the experiment on SW-620 and in the experiment with HOP-62 was > 100 µM (inactive) each time. Also, the GI50 in the experiment on HCT-116, in the experiment on Malme-3M, in the experiment on SK-MEL-5, in the experiment on A549, in the experiment on SNB-75 and in the experiment on CAKI-1 was > 100 µM (inactive) in each case. Also, the GI50 with SNB-19 was > 100 µM (inactive).
For the molecule `CCOC1(OCC)C2C=CC1C(COS(=O)(=O)c1ccc(C)cc1)C2COS(=O)(=O)c1ccc(C)cc1` (stereo not given), the GI50 with SK-OV-3 was 33.3 µM (inactive); in the experiment on ACHN, 33.7 µM (inactive); in the experiment with IGROV-1, 43.1 µM (inactive); in the experiment with CCRF-CEM, 20 µM (inactive); in the experiment on OVCAR-5, 49.4 µM (inactive); in the experiment on TK-10, 41.2 µM (inactive). Also, the GI50 was 11.6 µM (inactive) with PC-3; 18.1 µM (inactive) with NCI-H522; 35.5 µM (inactive) in the experiment on NCI-H460; 37.3 µM (inactive) with Hs-578T; 36.3 µM (inactive) in the experiment on SW-620; 45.8 µM (inactive) in the experiment with HOP-62. For the same molecule, the GI50 in the experiment on HCT-116 is 21.5 µM (inactive); with Malme-3M, 24.4 µM (inactive); with SK-MEL-5, 15.2 µM (inactive); in the experiment with A549, 34.6 µM (inactive); in the experiment with SNB-75 it was 24.8 µM (inactive); in the experiment on SNB-19 it was 33.8 µM (inactive).
For `COC(=O)C1=NN2c3ccccc3CN([C@@H](C)c3ccccc3)C(=O)[C@@H]2[C@H]1c1ccccc1`, the GI50 is > 100 µM (inactive) in the experiment with SK-OV-3; > 100 µM (inactive) with ACHN; > 100 µM (inactive) in the experiment with CCRF-CEM; > 100 µM (inactive) with OVCAR-5; > 100 µM (inactive) in the experiment on TK-10; 21.3 µM (inactive) in the experiment with PC-3. Also, the GI50 in the experiment with NCI-H522 was 43.4 µM (inactive); with NCI-H460 it was > 100 µM (inactive); in the experiment on Hs-578T it was > 100 µM (inactive); in the experiment on SW-620, > 100 µM (inactive); with HOP-62 it was > 100 µM (inactive); in the experiment with HCT-116 it was > 100 µM (inactive). The GI50 in the experiment on Malme-3M is > 100 µM (inactive); in the experiment on SK-MEL-5 it was > 100 µM (inactive); in the experiment on A549, > 100 µM (inactive); with SNB-75 it was 30.3 µM (inactive); in the experiment with CAKI-1 it was > 100 µM (inactive); in the experiment on SNB-19 it was > 100 µM (inactive).
In the case of `CC[C@H](CCCC[C@H]1CC[C@@H]2CC(=O)C[C@H]12)OC`, the GI50 in the experiment with SK-OV-3 is > 100 µM (inactive); in the experiment on ACHN it was > 100 µM (inactive); in the experiment with IGROV-1 it was > 100 µM (inactive); in the experiment on CCRF-CEM, 60.7 µM (inactive); in the experiment with TK-10 it was > 100 µM (inactive); in the experiment on NCI-H522, 65.8 µM (inactive). The GI50 in the experiment on NCI-H460 is > 100 µM (inactive); in the experiment with Hs-578T, > 100 µM (inactive); with HOP-62, > 100 µM (inactive); in the experiment with RPMI-8226, 34 µM (inactive); in the experiment with HCT-116, 52.2 µM (inactive); with Malme-3M, > 100 µM (inactive). Besides, the GI50 in the experiment on SK-MEL-5 was 31.4 µM (inactive); in the experiment on A549 it was 93.8 µM (inactive); in the experiment with SNB-75, > 100 µM (inactive); in the experiment on CAKI-1, > 100 µM (inactive); with SNB-19, > 100 µM (inactive).
Consider `CC12C=CC(C)(C3C(=O)C4C(C(=O)C31)C1(C)C=CC4(C)[S+]1[O-])[S+]2[O-]` (stereo not given), for which the GI50 is > 100 µM (inactive) in the experiment on SK-OV-3; > 100 µM (inactive) in the experiment with ACHN; 83.9 µM (inactive) in the experiment on IGROV-1; > 100 µM (inactive) with OVCAR-5; > 100 µM (inactive) in the experiment with TK-10; > 100 µM (inactive) in the experiment with PC-3. Also, the GI50 in the experiment on NCI-H522 is 38.4 µM (inactive); in the experiment on NCI-H460 it was 53.1 µM (inactive); in the experiment on Hs-578T, > 100 µM (inactive); in the experiment with HOP-62 it was > 100 µM (inactive); with Malme-3M it was 83.4 µM (inactive); in the experiment on SK-MEL-5, 21.9 µM (inactive). For the same molecule, the GI50 with A549 is > 100 µM (inactive); in the experiment on SNB-75 it was 57.5 µM (inactive); with CAKI-1 it was > 100 µM (inactive); in the experiment with SNB-19, 50.6 µM (inactive).
Take `Cc1ccc2c(c1)C(=O)/C(=C\c1ccccc1)CCS2(=O)=O`: the GI50 in the experiment on SK-OV-3 is 15.9 µM (inactive); in the experiment with ACHN, 11.4 µM (inactive); in the experiment on IGROV-1, 9.68 µM (inactive); in the experiment with CCRF-CEM, 1.07 µM (active); in the experiment with OVCAR-5, 19 µM (inactive); with TK-10 it was 13.8 µM (inactive). The GI50 with PC-3 was 10.4 µM (inactive); in the experiment on NCI-H522, 4.36 µM (inactive); in the experiment on NCI-H460, 9.12 µM (inactive); with Hs-578T, 15.8 µM (inactive); in the experiment on SW-620, 15.5 µM (inactive); in the experiment with HOP-62, 20.9 µM (inactive). For the same molecule, the GI50 in the experiment with HCT-116 is 6.43 µM (inactive); with Malme-3M, 10.7 µM (inactive); with SK-MEL-5, 11.6 µM (inactive); in the experiment with A549, 12.9 µM (inactive); with SNB-75, 20.6 µM (inactive); with CAKI-1, 17.2 µM (inactive). For the same molecule, in the experiment on SNB-19, the GI50 is 8.51 µM (inactive).
As for `O=C(NCCCN(CCCCN(CCCNC(=O)C(F)(F)F)CCCc1ccccc1)CCCc1ccccc1)C(F)(F)F`, the GI50 with SK-OV-3 was 2.49 µM (inactive); in the experiment with ACHN, 2 µM (inactive); with IGROV-1, 1.83 µM (inactive); with CCRF-CEM it was 4.63 µM (inactive); in the experiment on OVCAR-5 it was 12.8 µM (inactive); in the experiment on TK-10, 1.91 µM (inactive). Further, the GI50 was 1.78 µM (inactive) with NCI-H522; 1.87 µM (inactive) with NCI-H460; 2.02 µM (inactive) in the experiment on Hs-578T; 1.98 µM (inactive) with SW-620; 2.63 µM (inactive) with RPMI-8226; 2.47 µM (inactive) in the experiment on HCT-116. The GI50 with Malme-3M is 1.75 µM (inactive); in the experiment on SK-MEL-5 it was 1.69 µM (inactive); with A549, 1.82 µM (inactive); in the experiment on SNB-75 it was 1.12 µM (active); with CAKI-1, 1.94 µM (inactive); with SNB-19, 2 µM (inactive).
`CCCCCCCCCCCCCCCCP(=O)(O)OP(=O)(O)OCC1OC(n2cnc3c(N)ncnc32)C(O)C1O` (stereo not given): the GI50 with SK-OV-3 is 28.6 µM (inactive); in the experiment on ACHN it was 26.7 µM (inactive); in the experiment on IGROV-1, 16.3 µM (inactive); in the experiment with CCRF-CEM, 29.6 µM (inactive); in the experiment on OVCAR-5 it was 15.5 µM (inactive); with TK-10, 15.6 µM (inactive). For the same molecule, the GI50 in the experiment with PC-3 is 20.7 µM (inactive); in the experiment with NCI-H522 it was 22.1 µM (inactive); in the experiment on NCI-H460 it was 24.5 µM (inactive); in the experiment with Hs-578T, 26.4 µM (inactive); with SW-620, 29 µM (inactive); with HOP-62 it was 19.5 µM (inactive). Besides, the GI50 was 21.5 µM (inactive) with HCT-116; 22.2 µM (inactive) with Malme-3M; 29 µM (inactive) in the experiment on SK-MEL-5; 33.5 µM (inactive) in the experiment with A549; 20.5 µM (inactive) with SNB-75; 28.7 µM (inactive) in the experiment on CAKI-1. Moreover, the GI50 in the experiment on SNB-19 is 20 µM (inactive).
Turning to `COC(=O)C1=C(O)C(C(=O)OC)[C@@]2(O)[C@@H](C(=O)OC)C(c3ccc(OC(=O)/C=C/c4ccccc4)cc3)C[C@@H]1[C@@H]2C(=O)OC` (stereo not given in full), the GI50 in the experiment with SK-OV-3 was 75.5 µM (inactive); in the experiment on ACHN, 18.9 µM (inactive); with IGROV-1 it was 8.04 µM (inactive); with CCRF-CEM it was 2.68 µM (inactive); in the experiment with OVCAR-5 it was 12.1 µM (inactive); in the experiment on TK-10, 6.82 µM (inactive). Moreover, the GI50 is 6.84 µM (inactive) in the experiment on PC-3; 5.3 µM (inactive) in the experiment with NCI-H522; 2.64 µM (inactive) with NCI-H460; 68.4 µM (inactive) in the experiment on Hs-578T; 6.01 µM (inactive) in the experiment with SW-620; 23.8 µM (inactive) with HOP-62. Further, the GI50 in the experiment on HCT-116 was 4.24 µM (inactive); with Malme-3M, 25.1 µM (inactive); in the experiment on SK-MEL-5 it was 10.6 µM (inactive); in the experiment on A549, 12.6 µM (inactive); with SNB-75, 29.6 µM (inactive); in the experiment on CAKI-1, 7.36 µM (inactive). For the same molecule, the GI50 in the experiment with SNB-19 was 20.6 µM (inactive).
For the molecule `C=C(CN(C)C)C(=O)c1ccccc1[N+](=O)[O-]`, the GI50 was 37.2 µM (inactive) in the experiment on SK-OV-3; 16.1 µM (inactive) in the experiment with ACHN; 22.2 µM (inactive) in the experiment on IGROV-1; 15.8 µM (inactive) with OVCAR-5; 19.5 µM (inactive) in the experiment on TK-10; 17.4 µM (inactive) in the experiment on PC-3. For the same molecule, the GI50 in the experiment on NCI-H522 is 3.56 µM (inactive); in the experiment on NCI-H460, 34 µM (inactive); with Hs-578T, 22.9 µM (inactive); with SW-620 it was 11.3 µM (inactive); in the experiment with HOP-62 it was 38.7 µM (inactive); in the experiment with HCT-116, 17.3 µM (inactive). Besides, the GI50 in the experiment with Malme-3M was 7.76 µM (inactive); in the experiment on SK-MEL-5, 18.8 µM (inactive); with A549, > 57.8 µM (inactive); in the experiment on SNB-75, 34.8 µM (inactive); in the experiment with CAKI-1 it was 14.2 µM (inactive); with SNB-19 it was > 56.4 µM (inactive).
